According to patent US8598157B2, “5-alkynyl-pyridines” (Boehringer Ingelheim International GmbH, priority 2011, dated 2013):

Tests used:
H460 cells = assay: alamarBlue H460 cell assay (antiproliferative/cytotoxicity); assay type: cell-based; settings: NCI-H460; H460 human lung carcinoma cells
In short: (§1)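 EC50 from alamarBlue fluorescence (590 nm emission) after 5-6 d treatment with serially diluted compound, 10 μM max final concentration; dye incubation 8 h at 37 °C.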

MCF7 cells = assay: alamarBlue MCF7 cell assay (antiproliferative/cytotoxicity); assay type: cell-based; settings: MCF7 human breast cancer cell line
In short: as §1

PI3Kalpha = PI3Kalpha (Homo sapiens (Human), UniProt P42336); assay: Inhibition of PI3Kalpha-induced PIP-2 phosphorylation (filter-binding assay); assay type: biochemical; settings: 33P-ATP, p85alpha/His-p110alpha, read-out: IC50 PI3Kα
Sequence of PI3Kalpha (P42336 whole entry): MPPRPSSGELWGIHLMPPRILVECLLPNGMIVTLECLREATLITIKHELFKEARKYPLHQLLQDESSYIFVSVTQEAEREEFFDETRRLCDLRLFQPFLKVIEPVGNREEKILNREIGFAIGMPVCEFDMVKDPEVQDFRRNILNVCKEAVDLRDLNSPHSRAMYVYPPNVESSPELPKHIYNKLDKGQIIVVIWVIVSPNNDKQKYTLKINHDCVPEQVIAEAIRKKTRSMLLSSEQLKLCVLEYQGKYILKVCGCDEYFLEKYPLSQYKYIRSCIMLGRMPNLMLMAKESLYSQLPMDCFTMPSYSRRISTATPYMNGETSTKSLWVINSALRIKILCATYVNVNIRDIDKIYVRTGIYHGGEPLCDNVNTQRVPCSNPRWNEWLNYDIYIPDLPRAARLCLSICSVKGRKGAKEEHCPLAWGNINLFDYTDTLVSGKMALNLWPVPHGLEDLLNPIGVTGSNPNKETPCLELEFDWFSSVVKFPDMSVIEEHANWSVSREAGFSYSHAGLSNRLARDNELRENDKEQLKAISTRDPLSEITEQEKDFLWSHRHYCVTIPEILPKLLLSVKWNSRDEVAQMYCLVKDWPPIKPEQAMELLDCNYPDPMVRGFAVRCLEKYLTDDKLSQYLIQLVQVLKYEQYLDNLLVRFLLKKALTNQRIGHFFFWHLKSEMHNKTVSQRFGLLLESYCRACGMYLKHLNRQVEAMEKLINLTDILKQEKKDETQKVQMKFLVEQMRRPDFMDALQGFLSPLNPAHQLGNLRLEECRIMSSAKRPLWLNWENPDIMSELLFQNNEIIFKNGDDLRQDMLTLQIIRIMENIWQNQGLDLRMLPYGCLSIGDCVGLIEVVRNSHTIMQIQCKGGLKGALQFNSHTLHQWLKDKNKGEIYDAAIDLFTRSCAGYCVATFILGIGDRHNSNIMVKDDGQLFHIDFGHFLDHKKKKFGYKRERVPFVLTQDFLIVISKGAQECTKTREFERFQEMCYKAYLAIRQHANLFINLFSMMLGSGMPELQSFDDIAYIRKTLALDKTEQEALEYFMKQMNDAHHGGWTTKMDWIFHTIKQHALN
In short: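 Radiometric filter-binding assay: PI3Kα (25 ng/well) preincubated 20 min at room temperature with compound and PIP2-containing lipid vesicles plus phosphotyrosine PDGFRβ peptide. Reaction started with cold ATP (1 μM final) and [33P]-ATP and run 120 min at room temperature; filter-captured radioactivity counted, IC50 from duplicate dilution series.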

U87 cells = assay: U87 cell assay (antiproliferative/cytotoxicity); assay type: cell-based; settings: U-87MG human glioblastoma cells
In short: as §1

BT474 cells = assay: alamarBlue BT474 cell assay (antiproliferative/cytotoxicity); assay type: cell-based; settings: BT-474 human breast cancer cell line
In short: as §1

MB453 cells = assay: alamarBlue MB453 cell assay (antiproliferative/cytotoxicity); assay type: cell-based; settings: Homo sapiens; MDA MB 453 breast cancer cell line
In short: as §1

Compound `CCc1ncnc(N2CCN(C(C)=O)CC2)c1C#Cc1cnc(C)c(NS(=O)(=O)c2ccc(F)cc2)c1` [Example I-68, N-{5-[4-(4-Acetyl-piperazin-1-yl)-6-ethyl-pyrimidin-5-ylethynyl]-2-methyl-pyridin-3-yl}-4-fluoro-benzenesulfonamide] has an EC50 (H460 cells) of 542 nM, an EC50 (MCF7 cells) of 36 nM and an IC50 (PI3Kalpha) of 0.47 nM. It also gave an EC50 (U87 cells) of 545 nM, an EC50 (BT474 cells) of 117 nM and an EC50 (MB453 cells) of 116 nM.
